Assay results reported in ChEMBL document CHEMBL3880387, “Bis aromatic compounds for use as LTC4 synthase inhibitors” (2013).
In brackets after ≈: the same amount, converted by molar mass.

Experiment: Thermodynamic solubility of the compound in monobasic potassium phosphate buffer at pH 7.4 after 24 hrs by LC-MS/MS analysis
Format: physicochemical
Conditions: read-out: Therm_solubility

## CN(c1ccc(Cl)cc1)c1ccc(C(=O)c2ccc(C(=O)C3(c4ccccc4)CCCCC3)c(C(=O)O)c2)nc1
  solubility thermodynamic at 24 h: 7 µM (≈ 3.87 µg/mL)
